Columns and labels:
AgORco [1] = molecular target: T1, AgORco (Anopheles gambiae, UniProt Q7QCC7); assay: Whole-cell patch clamp, HEK293 cells stably expressing AgORco alone; assay type: cell-based
T1 construct: expressed in transfected cells
T1 sequence (Q7QCC7 1-478): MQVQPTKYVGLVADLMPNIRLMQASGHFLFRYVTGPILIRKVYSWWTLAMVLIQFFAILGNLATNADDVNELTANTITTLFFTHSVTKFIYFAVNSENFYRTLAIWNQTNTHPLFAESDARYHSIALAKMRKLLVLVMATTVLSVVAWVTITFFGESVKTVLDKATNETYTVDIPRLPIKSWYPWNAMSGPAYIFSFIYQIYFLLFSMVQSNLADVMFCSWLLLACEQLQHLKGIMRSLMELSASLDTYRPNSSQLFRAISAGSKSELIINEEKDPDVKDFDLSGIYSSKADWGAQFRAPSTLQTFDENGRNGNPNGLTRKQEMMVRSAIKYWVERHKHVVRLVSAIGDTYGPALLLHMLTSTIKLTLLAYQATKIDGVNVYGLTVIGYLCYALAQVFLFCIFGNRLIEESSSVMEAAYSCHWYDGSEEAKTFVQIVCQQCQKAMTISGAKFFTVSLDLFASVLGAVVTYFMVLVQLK
Procedure: (§1) Currents from OR-expressing HEK293 cells were amplified with an Axopatch 200b Amplifier (Axon Instruments) and digitized through a Digidata 1322A (Axon Instruments). Electrophysiological data was recorded and analyzed using pCLAMP 10 (Axon Instruments). Electrodes were fabricated from quartz tubing (Sutter Instruments) and pulled to 4-6 MiΩ for whole cell recording. Electrodes were filled with internal solution (120 mM KCl, 30 mM D-glucose, 10 mM HEPES, 2 mM MgCl2, 1.1 mM EGTA, and 0.1 CaCl2) (pH 7.35, 280 mOsm). External (bath) solution contained 130 mM NaCl, 34 mM D-glucose, 10 mM HEPES, 1.5 mM CaCl2), 1.3 mM KH2PO4, and 0.5 MgSO4 (pH 7.35, 300 mOsm). Compounds were diluted in external solution and locally perfused to the recording cell using Perfusion Pencil (Automate Scientific) and controlled by a ValveLink 8.2 controller (Automate Scientific). Whole cell recordings were sampled at 10 kHz and filtered at 5 kHz. Outside-out patches were obtained using 10-15MΩ electrodes pulled from standard glass capillaries (World Precision Instruments) and fire-polished with an MF-830 micro forge (Narishige). Single channel recordings were sampled at 20 kHz. Recordings were reduced to 1 kHz and low-pass filtered at 500 Hz for display and analysis using QuB (SUNY at Buffalo).
(§2) To test the hypothesis that VUAA1 directly agonized AgORco, whole-cell patch clamp responses were examined in AgORco+AgOR10 expressing cells as well as HEK293 cells stably expressing AgORco alone. […] The VUAA1-dependent currents in AgORco+AgOR10 cells resembled those resulting from application of benzaldehyde, an orthosteric agonist of AgOR10 (FIG. 3C) (Wang, 2010; Carey, 2010). […] To investigate the specificity of VUAA1 agonism, the inventors transiently transfected HEK cells with the AgORco orthologs of Drosophila melanogaster and Heliothis virescens, DmORco and HvOR2 respectively.

AgORco+AgOR10 = molecular target: T2, AgORco+AgOR10 (Anopheles gambiae, UniProt Q7QCC7); assay: Whole-cell patch clamp, HEK293 cells expressing AgORco+AgOR10; assay type: cell-based
T2 construct: expressed in transfected cells
T2 sequence (Q7QCC7 1-478): T1 sequence (Q7QCC7 1-478)
Procedure: as §1, §2

[2] = molecular target: T3, rat transient receptor potential vanilloid 1 (rTRPV1) (Rattus norvegicus, UniProt O35433); assay: Whole-cell patch clamp, HEK cells stably expressing rTRPV1; assay type: cell-based
T3 construct: expressed in transfected cells
T3 sequence (O35433 whole entry): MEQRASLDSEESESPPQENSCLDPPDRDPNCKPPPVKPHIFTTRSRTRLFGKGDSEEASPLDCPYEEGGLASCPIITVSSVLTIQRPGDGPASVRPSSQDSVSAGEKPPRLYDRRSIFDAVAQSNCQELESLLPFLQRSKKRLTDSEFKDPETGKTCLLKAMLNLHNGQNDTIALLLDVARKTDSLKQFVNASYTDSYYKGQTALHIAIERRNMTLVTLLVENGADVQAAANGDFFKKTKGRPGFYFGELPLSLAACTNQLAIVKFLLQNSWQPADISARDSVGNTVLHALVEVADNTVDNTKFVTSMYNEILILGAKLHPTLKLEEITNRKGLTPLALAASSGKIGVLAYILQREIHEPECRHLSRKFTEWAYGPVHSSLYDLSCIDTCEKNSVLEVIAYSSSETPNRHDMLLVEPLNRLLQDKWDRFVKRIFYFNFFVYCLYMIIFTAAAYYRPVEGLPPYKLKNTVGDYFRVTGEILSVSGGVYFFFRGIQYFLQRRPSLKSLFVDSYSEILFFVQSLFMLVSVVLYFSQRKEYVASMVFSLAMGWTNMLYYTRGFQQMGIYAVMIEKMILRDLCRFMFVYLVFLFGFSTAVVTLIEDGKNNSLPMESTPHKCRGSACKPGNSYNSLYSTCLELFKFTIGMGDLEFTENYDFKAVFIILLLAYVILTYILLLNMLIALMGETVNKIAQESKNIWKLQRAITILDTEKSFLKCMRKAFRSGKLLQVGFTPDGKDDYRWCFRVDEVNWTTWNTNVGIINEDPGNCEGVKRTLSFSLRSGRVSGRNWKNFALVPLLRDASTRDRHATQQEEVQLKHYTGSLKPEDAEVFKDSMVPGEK

AgORco [3] = molecular target: T1, AgORco; assay: Single-channel recording, outside-out patches from AgORco-expressing HEK293 cells; assay type: biochemical
Procedure: as §1, with “Buffalo). […]” for “Buffalo).”

[4] = system: CO2 sensitive CpA neuron (does not express AgORco); assay: Single sensillum recording, capitate peg sensilla, CpA neuron; assay type: in vivo, Anopheles gambiae; conditions: CO2 pulse at completion of assay
Procedure: Single sensillum recordings were performed on 4-7 day old, non-bloodfed Anopheles gambiae females maintained on 10% sucrose and a 12/12 light dark cycle. Legs, wings and antennae were removed from cold-anesthetized females that were then restrained on double-stick tape with thread. A glass reference electrode filled with Sensillar lymph ringers (SLR)(Xu, 2005) was placed in the eye and the recording electrode filled with DMSO or VUAA1 diluted in SLR was used to puncture sensilla at their base. Responses were recorded and digitized using a Syntech IDAC-4 and analyzed with AutoSpike software (Syntech). New glass recording pipettes were used for every recording. Data was sampled at 12 kHz.
The inventors next performed single unit, extracellular electrophysiological recordings on adult female An. gambiae to determine whether VUAA1 could activate AgORco-expressing odorant receptor neurons (ORNs) in vivo. ORNs, which express AgORco and a conventional OR are enclosed within the hair-like sensilla present on olfactory tissues. […] CpA is clearly distinguished from CpB/C by its large action potential amplitude. The action potential amplitudes of CpB and CpC are much smaller and in some preparations indistinguishable from each other; as a result, the spike activity of CpB and CpC neurons were binned for data analysis. […]

CCc1ccc(NC(=O)CSc2nnc(-c3cccnc3)n2CC)cc1 [VUAA1, 2-((4-ethyl-5-(pyridin-3-yl)-4H-1,2,4-triazol-3-yl)thio)-N-(4-ethylphenyl)acetamide]
whole-cell current response (AgORco [1]; AgORco alone cells, holding potential −60 mV): concentration-dependent inward currents | reversal potential of agonist-induced current (AgORco [1]; AgORco alone, mean s.e.m.): +0.4±1.1 mV | whole-cell current response at −5.0 log M (AgORco [1]; −5.0 log M): no response | whole-cell current response (AgORco+AgOR10; AgORco+AgOR10 cells, holding potential −60 mV): concentration-dependent inward currents | reversal potential of agonist-induced current (AgORco+AgOR10; AgORco+AgOR10 complexes, mean s.e.m.): −4.8±3.0 mV | whole-cell current response at −5.0 log M (AgORco+AgOR10; −5.0 log M): inward currents | whole-cell current response [2]: did not elicit currents | average unitary current of AgORco (AgORco [3]; VUAA1-evoked, mean±st. dev.): 1.3±0.3 pA | channel opening probability P0 (AgORco [3]; during 5 s application of −4.0 log M VUAA1, patch held at −60 mV): 0.38 | CpA neuron activity [4]: unchanged

— patent publication US11484032B2, “Compositions for inhibition of insect sensing” (Vanderbilt University, priority 2011, dated 2022)
